Assay results: ChEMBL document CHEMBL2157907, “Optimization of anti-Trypanosoma cruzi oxadiazoles leads to identification of compounds with efficacy in infected mice” (Bioorg Med Chem, 2012)
Active and inactive are the calls of the source. The rule behind the calls is not given here.

Experiments:
[1] = Cytotoxicity against BALB/c mouse splenocytes after 24 hrs by [3H]-thymidine incorporation assay; type: cell-based, Splenocyte; conditions: read-out: LC50
[2] = target: Cruzipain (Trypanosoma cruzi) (UniProt P25779); test: Inhibition of Trypanosoma cruzi cruzain using Z-Phe-Arg-aminomethylcoumarin as substrate at 100 uM after 10 mins
Sequence of Cruzipain (Trypanosoma cruzi) (P25779 123-467 limits assumed): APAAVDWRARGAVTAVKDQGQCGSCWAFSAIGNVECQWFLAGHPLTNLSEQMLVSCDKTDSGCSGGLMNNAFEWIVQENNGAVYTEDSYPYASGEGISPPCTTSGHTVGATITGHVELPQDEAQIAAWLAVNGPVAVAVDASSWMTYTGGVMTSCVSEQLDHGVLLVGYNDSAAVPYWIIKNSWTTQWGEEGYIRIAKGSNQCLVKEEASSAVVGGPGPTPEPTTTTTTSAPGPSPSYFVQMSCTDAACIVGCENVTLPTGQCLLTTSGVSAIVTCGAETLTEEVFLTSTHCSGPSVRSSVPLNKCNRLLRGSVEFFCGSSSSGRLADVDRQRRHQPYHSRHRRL

[3] = tested on: Trypanosoma cruzi; test: Antitrypanosomal activity against trypomastigotes of Trypanosoma cruzi Y infected in BALB/c mouse peritoneal exudate macrophages assessed as reduction of parasite level at 10 ug/ml after 4 days; type: functional, organism-based
[4] = tested on: Trypanosoma cruzi; test: Antitrypanosomal activity against epimastigotes of Trypanosoma cruzi Y after 5 days; type: functional, organism-based; conditions: 120 h
[5] = target: Cruzipain (Trypanosoma cruzi, UniProt P25779); test: Inhibition of Trypanosoma cruzi cruzain using Z-Phe-Arg-aminomethylcoumarin as substrate after 10 mins
Sequence of Cruzipain (P25779 whole entry): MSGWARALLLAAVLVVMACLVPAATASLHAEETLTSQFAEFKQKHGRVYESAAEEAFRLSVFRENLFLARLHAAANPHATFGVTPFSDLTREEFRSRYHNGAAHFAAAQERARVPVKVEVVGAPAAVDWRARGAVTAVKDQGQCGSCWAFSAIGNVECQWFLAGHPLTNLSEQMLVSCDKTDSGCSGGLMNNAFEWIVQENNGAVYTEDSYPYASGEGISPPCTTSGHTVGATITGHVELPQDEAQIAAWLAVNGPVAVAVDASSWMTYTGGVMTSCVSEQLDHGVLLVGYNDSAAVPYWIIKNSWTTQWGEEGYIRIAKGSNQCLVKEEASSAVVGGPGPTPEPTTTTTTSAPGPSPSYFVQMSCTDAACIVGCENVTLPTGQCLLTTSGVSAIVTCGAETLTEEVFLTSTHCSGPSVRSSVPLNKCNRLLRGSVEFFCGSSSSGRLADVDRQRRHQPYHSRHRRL

[6] = tested on: Trypanosoma cruzi; test: Antitrypanosomal activity against trypomastigotes of Trypanosoma cruzi Y infected in rhesus monkey LLC-MK2 cells assessed parasite viability after 24 hrs; type: functional, organism-based; conditions: LLC-MK2, 24 h

COc1ccc(-c2noc(C(=O)N/N=C/c3ccc4c(c3)OCO4)n2)cc1
CC50 at 24 h [1]: > 100 mg/L
inhibition [2]: 44%

COc1cc(/C=N/NC(=O)c2nc(-c3ccc([N+](=O)[O-])cc3)no2)ccc1O
CC50 at 24 h [1]: > 100 mg/L
inhibition [2]: 47%

Cc1ccc(-c2noc(C(=O)N/N=C/c3ccc4c(c3)OCO4)n2)cc1
CC50 at 24 h [1]: > 100 mg/L
inhibition [2]: 49%

O=C(N/N=C/c1ccc2c(c1)OCO2)c1nc(-c2ccc(Br)cc2)no1
CC50 at 24 h [1]: > 100 mg/L
Activity [3]: inactive
IC50 [4]: 14 µM
IC50 [5]: 0.03 µM
IC50 [6]: 13.4 µM
inhibition [2]: 95%
